Measurements published in patent publication US20080032933A1, “Type V Phosphodiesterase Inhibitors and Natriuretic Polypeptides” (MAYO FOUNDATION FOR MEDICAL EDUCATION AND RESEARCH, priority 2005, published 2008).
Where two headings read alike, the source gives them in different places. Values belong to the compound of their own block, whether it stands above or below them. No end group written: not given here.

Legend:
[1] = system: male mongrel dogs with overt chronic heart failure produced by rapid ventricular pacing; test: Cardiorenal and neurohumoral profile on day 11 of pacing-induced CHF; type: in vivo, dog
Protocol: A model of pacing-induced overt chronic heart failure was used (Chen et al., Circulation, 100:2443-2448 (1999)). Briefly, all dogs underwent implantation of a programmable cardiac pacemaker (Medtronic, Minneapolis, Minn.). Under pentobarbital sodium anesthesia (30 mg/kg, intravenous) and artificial ventilation (Harvard respirator, Harvard Apparatus, Millis, Mass.) with 5 L/min supplemental oxygen, a left lateral thoracotomy and pericardiotomy were performed. With the heart exposed, a screw-in epicardial pacemaker lead was implanted into the right ventricle. The pacemaker generator was implanted subcutaneously into the left chest wall and connected to the pacemaker lead. Dogs received pre- and post-operative prophylactic antibiotic treatment with 225 mg clindamycin subcutaneously and 400,000 U procaine penicillin G plus 500 mg dihydrostreptomycin intramuscularly (Combiotic, Pfizer, Inc., New York, N.Y.). Post-operative prophylactic antibiotic was continued through the first two post-operative days. Dogs were fed a fixed sodium diet (58 mEq/day, Hill's ID) and allowed water ad lib. All dogs were walked daily. Appetite, activity, body temperature, and condition of surgical skin sites were documented. Following a 14-day post-operative recovery period, the pacemaker was turned on at 240 bpm. […]
(§1) Glomerular filtration rate (GFR) was measured by inulin clearance.
(§2) Results were expressed as mean ±SEM. […] GraphPad Prism software was used for the above calculation. Statistical significance was accepted as p<0.05.

[2] = system: male mongrel dogs with overt chronic heart failure produced by rapid ventricular pacing; test: Humoral, hemodynamic and renal response to acute SQ BNP on day 11 of pacing-induced CHF
Protocol: (§3) Studies were conducted in 2 groups of male mongrel dogs (18-23 kg) with overt chronic heart failure produced by rapid ventricular pacing at 240 beats per minute (bpm) for ten days on a fixed sodium diet. Group 1 (n=6) received Sildenafil (50 mg orally three times a day) during the 10 days of pacing and one dose an hour before the subcutaneous (SQ) administration of BNP on day 11. Group 2 (n=6) received no PDE V inhibitor, but did receive SQ BNP alone on day 11 of CHF.
(§4) Acute SQ BNP administration was performed as follows. On day 11 of rapid ventricular pacing at 240 bpm, an experiment was carried out to determine the cardiorenal and humoral function in both groups and also the response to acute SQ BNP administration (5 μg/kg). […] On the morning of the experiment, only group 1 received a final dose of Sildenafil 50 mg one hour before the dogs were anesthetized with sodium pentobarbital (15 mg/kg, i.v.), intubated, and mechanically ventilated with supplemental oxygen (Harvard respirator, Amersham, Millis, Mass.) at 20 cycles per minute. A flow-directed balloon-tipped thermodilution catheter (Ohmeda, Criticath, Madison, Wis.) was advanced into the pulmonary artery via the external jugular vein for cardiac hemodynamic measurement. The femoral artery was cannulated for blood pressure monitoring and blood sampling. The femoral vein was also cannulated for inulin and normal saline infusion. The left kidney was exposed via a flank incision, and the ureter was cannulated for urine collection. A calibrated electromagnetic flow probe was placed around the renal artery to measure renal blood flow (RBF).
(§5) The experiment began after a 60-minute equilibration period, with a 30-minute baseline urinary clearance. After the 30-minute baseline urinary clearance, SQ canine BNP 5 μg/kg was administered in the right hind leg. Following a 15-minute lead-in period, a 60-minute urinary clearance period was performed. Cardiovascular parameters measured during the acute experiment included mean arterial blood pressure (MAP), right atrial pressure (RAP), mean pulmonary arterial pressure (PAP), cardiac output (CO), and pulmonary capillary wedge pressure (PCWP). CO was determined by thermodilution in triplicate and averaged (Cardiac Output model 9510-A computer, American Edwards Laboratories, Irvine, Calif.). MAP was assessed via direct measurement from the femoral arterial catheter. Systemic vascular resistance (SVR) was calculated as [SVR=(MAP−RAP)/CO]. Inulin was administered intravenously at the start of the equilibration period as a calculated bolus, followed by a 1 mL/min continuous infusion to achieve plasma levels of 40-60 mg/dL. Glomerular filtration rate (GFR) was measured by inulin clearance.
(§6) Cardiovascular hemodynamics were measured at the start of each urinary clearance. Arterial blood was collected in heparin and EDTA tubes and immediately placed on ice midway through each clearance. After centrifugation at 2,500 rpm at 4° C., plasma was decanted and stored at −20° C. until analysis. Urine was collected on ice during the entire period of each clearance for assessment of urine volume, electrolytes, and inulin. Urine collected for cGMP analysis was heated to more than 90° C. before storage.
(§7) Plasma samples for BNP renin and angiotensin II were measured by radioimmunoassay (RIA) using methods described elsewhere (Chen et al., Circulation, 96:I-524 (1997)). Plasma and urinary samples for cGMP were measured by RIA using methods described elsewhere (Steiner et al., J. Biol. Chem., 247:1106-1113 (1972)). Urinary and plasma inulin concentrations were measured by the anthrone method (Davidson and Sachner, J. Lab. Clin. Med., 62:351-356 (1963)).

[3] = system: male mongrel dogs with overt chronic heart failure produced by rapid ventricular pacing; test: LV remodeling (echocardiography FS, CO, LV mass, plasma BNP) after 10 days of PDE V inhibitor in pacing-induced CHF; type: in vivo, dog
Protocol: A model of pacing-induced overt chronic heart failure was used (Chen et al., Circulation, 100:2443-2448 (1999)). Briefly, all dogs underwent implantation of a programmable cardiac pacemaker (Medtronic, Minneapolis, Minn.). Under pentobarbital sodium anesthesia (30 mg/kg, intravenous) and artificial ventilation (Harvard respirator, Harvard Apparatus, Millis, Mass.) with 5 L/min supplemental oxygen, a left lateral thoracotomy and pericardiotomy were performed. With the heart exposed, a screw-in epicardial pacemaker lead was implanted into the right ventricle. The pacemaker generator was implanted subcutaneously into the left chest wall and connected to the pacemaker lead. Dogs received pre- and post-operative prophylactic antibiotic treatment with 225 mg clindamycin subcutaneously and 400,000 U procaine penicillin G plus 500 mg dihydrostreptomycin intramuscularly (Combiotic, Pfizer, Inc., New York, N.Y.). Post-operative prophylactic antibiotic was continued through the first two post-operative days. Dogs were fed a fixed sodium diet (58 mEq/day, Hill's ID) and allowed water ad lib. All dogs were walked daily. Appetite, activity, body temperature, and condition of surgical skin sites were documented. Following a 14-day post-operative recovery period, the pacemaker was turned on at 240 bpm.
Echocardiography was carried out at baseline before the pacemaker was turned on and at day 10 of pacing to determine LV fractional shortening (FS). Echocardiographic images were obtained in the conscious dog standing in a minimally restraining sling. Simultaneous electrocardiography was obtained. The optimal images were generally obtained from the right lateral chest wall just above the sternum at the equivalent of the anterior axillary line. Images analogous to the para-sternal long axis and para-sternal short axis views (human echocardiography) were consistently obtained at the base, mid-ventricular, and para-apical levels. LV two-dimensional (2D) and M-mode images were obtained with a 2.5-MHz ultrasonic transducer (General Electric Systems Five). LV M-mode tracings were obtained under 2D guidance using the 2D short-axis views between the two papillary muscles just distal to the mitral valve leaflet tips. All images were obtained in sinus rhythm. Care was taken to ensure that the M-mode cursor transects the LV in the midline, that the LV image is “on axis” (LV is round, not oval indicating an image between short and long axes), and that the cursor is perpendicular to the LV wall detecting maximal LV thickening of both the septal and posterior walls. End-diastole was defined as the maximal LV diastolic diameter at the peak of the R wave on the EKG, and end-systole was defined as the peak of the LV posterior wall motion. M-mode measurements were made in accordance with the American Society of Echocardiography leading-edge convention using the steepest continuous endocardial echoes. Measurements included LV end-diastolic (LVDd), and end-systolic dimensions (LVDs) were averaged for average dimension. FS (%)=[(LVDd−LVSd)/LVDd]*100.
as §1
At the end of the acute experiment, the heart was harvested, and the LV was carefully dissected out and weighed to determine LV mass. The LV mass was divided by the body weight to give the LV mass/Kg body weight.
as §2

[4] = system: male mongrel dogs with overt chronic heart failure produced by rapid ventricular pacing; conditions: dog, in vivo
Protocol: as §3, §4, §5, §6, §7

[5] = Sildenafil 50 mg orally three times a day for 10 days of pacing, mean ± SE
[6] = Sildenafil 50 mg orally three times a day for 10 days, P < 0.05 versus Untreated
[7] = PDE V inhibitor-treated group, Baseline (before SQ BNP)
[8] = PDE V inhibitor-treated group, SQ BNP (FIG. 2)
[9] = PDE V inhibitor-treated group, after SQ BNP
[10] = PDE V inhibitor-treated group, after SQ canine BNP 5 μg/kg (combination)
[11] = chronic administration in experimental overt CHF
[12] = 10 days of treatment, compared to the untreated group (FIG. 1)
[13] = Untreated CHF group (no PDE V inhibitor), after SQ canine BNP 5 μg/kg alone
[14] = untreated group (no PDE V inhibitor), SQ BNP alone (FIG. 2)

plasma BNP levels with SQ BNP [2, 9]: increased similarly
Compound: CCCc1nn(C)c2c(=O)[nH]c(-c3cc(S(=O)(=O)N4CCN(C)CC4)ccc3OCC)nc12 [PDE V inhibitor, Sildenafil]
MAP [1, 5]: 110 ± 4 mmHg
PAP [1, 5]: 27 ± 1 mmHg
PCWP [1, 5]: 23 ± 1 mmHg
RAP [1, 5]: 11 ± 1 mmHg
RBF [1, 5]: 160 ± 21 mL/min
UNaV [1, 5]: 2 ± 1 μEq/min
UV [1, 5]: 0.12 ± 0.01 mL/min
Plasma cGMP [1, 6]: 43 ± 2 pmol/mL
Urinary cGMP [1, 6]: 4219 ± 900 pmol/min
GFR ([1]; Sildenafil 50 mg orally three times a day for 10 days, inulin clearance): 30 ± 5 mL/min
MAP [2, 7]: 110 ± 4
PAP [2, 7]: 27 ± 1
PCWP [2, 7]: 23 ± 1
Plasma Ang II [2, 7]: 124 ± 2
Plasma Renin [2, 7]: 16 ± 2
Plasma cGMP [2, 7]: 43 ± 2 pmol/mL
RAP [2, 7]: 11 ± 1
Urinary cGMP Excretion [2, 7]: 4219 ± 900 fmol/min
GFR change with SQ BNP [2, 8]: increase in GFR
PTFNa change with SQ BNP [2, 8]: decreased significantly
UNaV change with SQ BNP [2, 8]: increased
CO with SQ BNP [2, 9]: unchanged
MAP [2, 10]: 103 ± 7
PAP [2, 10]: 23 ± 1
PCWP [2, 10]: 18 ± 1
Plasma Ang II [2, 10]: 37 ± 2
Plasma Renin [2, 10]: 9 ± 2
Plasma cGMP [2, 10]: 46 ± 3 pmol/mL
RAP [2, 10]: 8 ± 1
Urinary cGMP Excretion [2, 10]: 8600 ± 1600 fmol/min
cardiovascular hemodynamic effects ([2]; chronic Sildenafil with acute SQ BNP in experimental overt CHF): without adverse cardiovascular hemodynamic effects
renal response to acute SQ BNP [2, 11]: enhanced
CO (cardiac output) [3, 12]: improvement
LV FS (fractional shortening) [3, 12]: improvement
LV mass [3, 12]: reduction in LV mass
plasma BNP levels [3, 12]: strong trend for plasma BNP levels to be lower
LV remodeling [3, 11]: improved LV remodeling

Compound: BNP: canine brain natriuretic peptide administered subcutaneously at 5 μg/kg (SPKMMHKSGCFGRRLDRIGSLSGLGCNVLRKY; ends and bridges not checked; cysteine pairing not given here; UniProt P16859 109-140, looked up)
MAP [2, 13]: 110 ± 5
PAP [2, 13]: 25 ± 1
PCWP [2, 13]: 20 ± 1
Plasma Ang II [2, 13]: 73 ± 31
Plasma Renin [2, 13]: 20 ± 5
Plasma cGMP [2, 13]: 25 ± 3 pmol/mL
RAP [2, 13]: 6 ± 1
Urinary cGMP Excretion [2, 13]: 3580 ± 351 fmol/min
GFR change with SQ BNP [2, 14]: not observed
PTFNa change with SQ BNP [2, 14]: only trended to change
UNaV change with SQ BNP [2, 14]: only trended to change
CO with SQ BNP ([2]; untreated group, after SQ BNP alone): unchanged
plasma BNP levels with SQ BNP [4]: increased similarly
